Like-named read-outs stand apart in the source and are kept apart here.
Tests used:
K562cell line = experiment: NCI one-dose screening, leukemia K562; assay type: cell-based, human; details: K562, 10 μM
NCI-H460 = experiment: NCI one-dose screening, non-small cell lung cancer NCI-H460; assay type: cell-based, human; details: NCI-H460, 10 μM
HL-60, TB = experiment: NCI one-dose screening, leukemia HL-60, TB; assay type: cell-based, human; details: HL-60(TB)
TK-10 = experiment: NCI one-dose screening, renal cancer TK-10; assay type: cell-based, human; details: TK-10, 10 μM
MDA, -MB-435 = experiment: NCI one-dose screening, breast cancer MDA, -MB-435; assay type: cell-based, human; details: Melanoma, MDA-MB-435, 10 μM
COLO 205 = experiment: NCI one-dose screening, colon cancer COLO 205; assay type: cell-based, human; details: COLO 205, 10 μM
ACHN = experiment: NCI one-dose screening, renal cancer ACHN; assay type: cell-based, human; details: ACHN
NCI-H522 = experiment: NCI one-dose screening, non-small cell lung cancer NCI-H522; assay type: cell-based, human; details: NCI-H522, 10 μM
DU145 = experiment: NCI one-dose screening, prostate cancer DU145; assay type: cell-based, human; details: DU145, 10 μM
CAKI-1 = experiment: NCI one-dose screening, renal cancer CAKI-1; assay type: cell-based, human; details: CAKI-1, 10 μM
SF-295 = experiment: NCI one-dose screening, CNS cancer SF-295; assay type: cell-based, human; details: SF-295, 10 μM
SR = experiment: NCI one-dose screening, leukemia SR; assay type: cell-based, human; details: SR
NCl/ADR-RES = experiment: NCI one-dose screening, breast cancer NCl/ADR-RES; assay type: cell-based, human; details: Ovarian cancer, NCI/ADR-RES
SNB-19 = experiment: NCI one-dose screening, CNS cancer SNB-19; assay type: cell-based, human; details: SNB-19, 10 μM
MDA-MB-231/ATCC = experiment: NCI one-dose screening, breast cancer MDA-MB-231/ATCC; assay type: cell-based, human; details: MDA-MB-231/ATCC
786-O = experiment: NCI one-dose screening, renal cancer 786-O; assay type: cell-based, human; details: 786-0, 10 μM
EKVX = experiment: NCI one-dose screening, non-small cell lung cancer EKVX; assay type: cell-based, human; details: EKVX
U251 = experiment: NCI one-dose screening, CNS cancer U251; assay type: cell-based, human; details: U251, 10 μM
HS 578-T = experiment: NCI one-dose screening, breast cancer HS 578-T; assay type: cell-based, human
SK-MEL-28 = experiment: NCI one-dose screening, melanoma SK-MEL-28; assay type: cell-based, human; details: SK-MEL-28, 10 μM
NCI-H322M = experiment: NCI one-dose screening, non-small cell lung cancer NCI-H322M; assay type: cell-based, human
MCF7 = experiment: NCI one-dose screening, breast cancer MCF7; assay type: cell-based, human; details: MCF7, 10 μM
NCI-H226 = experiment: NCI one-dose screening, non-small cell lung cancer NCI-H226; assay type: cell-based, human; details: NCI-H226, 10 μM
human tumor cell lines = experiment: NCI one-dose screening, mean, delta and range of growth percent over all cell lines tested; assay type: cell-based; details: for Growth Percent (10 μM), Delta: Delta over all cell lines tested; for Growth Percent (10 μM), Mean: Mean over all cell lines tested; for Growth Percent (10 μM), Range: Range over all cell lines tested
OVCAR-4 = experiment: NCI one-dose screening, ovarian cancer OVCAR-4; assay type: cell-based, human; details: OVCAR-4, 10 μM
NCI-H23 = experiment: NCI one-dose screening, non-small cell lung cancer NCI-H23; assay type: cell-based, human; details: NCI-H23, 10 μM
MDA-MB-468 = experiment: NCI one-dose screening, breast cancer MDA-MB-468; assay type: cell-based, human; details: MDA-MB-468, 10 μM
SK-MEL-2 = experiment: NCI one-dose screening, melanoma SK-MEL-2; assay type: cell-based, human; details: SK-MEL-2, 10 μM
SF-539 = experiment: NCI one-dose screening, CNS cancer SF-539; assay type: cell-based, human; details: SF-539, 10 μM
[1] = test system: PC-3 prostate cancer cell line; experiment: SRB assay cell viability, PC-3 prostate cancer cell line; assay type: cell-based, human; details: PC-3 prostate cancer cell line, Table II prints no unit, μM printed, read-out: SRB assay: 50% inhibition of cancer cell proliferation of sample concentration (IC50) of PC-3 prostate cancer cell line
HOP-62 = experiment: NCI one-dose screening, non-small cell lung cancer HOP-62; assay type: cell-based, human; details: HOP-62, 10 μM
LOX IMVI = experiment: NCI one-dose screening, melanoma LOX IMVI; assay type: cell-based, human; details: LOX IMVI
CCRF-CEM = experiment: NCI screening platform one-dose single concentration screening, leukemia CCRF-CEM; assay type: cell-based, human; details: CCRF-CEM
OVCAR-3 = experiment: NCI one-dose screening, ovarian cancer OVCAR-3; assay type: cell-based, human; details: OVCAR-3, 10 μM
UACC-62 = experiment: NCI one-dose screening, melanoma UACC-62; assay type: cell-based, human; details: UACC-62, 10 μM
MOLT-4 = experiment: NCI one-dose screening, leukemia MOLT-4; assay type: cell-based, human; details: MOLT-4, 10 μM
SK-MEL-5 = experiment: NCI one-dose screening, melanoma SK-MEL-5; assay type: cell-based, human; details: SK-MEL-5, 10 μM
MALME-3M = experiment: NCI one-dose screening, melanoma MALME-3M; assay type: cell-based, human; details: MALME-3M
M14 = experiment: NCI one-dose screening, melanoma M14; assay type: cell-based, human; details: M14, 10 μM
SNB-75 = experiment: NCI one-dose screening, CNS cancer SNB-75; assay type: cell-based, human; details: SNB-75, 10 μM
SF-268 = experiment: NCI one-dose screening, CNS cancer SF-268; assay type: cell-based, human; details: SF-268, 10 μM
SN12C = experiment: NCI one-dose screening, renal cancer SN12C; assay type: cell-based, human; details: SN12C
UO-31 = experiment: NCI one-dose screening, renal cancer UO-31; assay type: cell-based, human; details: UO-31, 10 μM

SMILES: O=C1c2ccccc2C(=O)c2c1cc(N1CCCC1)c1nsnc21 [C7, 4-(pyrrolidine-1-yl)anthra-[2,1-c][1,2,5] thiadiazol-6,11-dione]
- Growth Percent (10 μM) (K562cell line): 75.50%
- Growth Percent (10 μM) (NCI-H460): 89.11%
- Growth Percent (10 μM) (HL-60, TB): 104.58%
- Growth Percent (10 μM) (TK-10): 141.01%
- Growth Percent (10 μM) (MDA, -MB-435): 105.87%
- Growth Percent (10 μM) (COLO 205): 82.13%
- Growth Percent (10 μM) (ACHN): 82.97%
- Growth Percent (10 μM) (NCI-H522): 83.41%
- Growth Percent (10 μM) (DU145): 105.08%
- Growth Percent (10 μM) (CAKI-1): 70.65%
- Growth Percent (10 μM) (SF-295): 87.02%
- Growth Percent (10 μM) (SR): 84.23%
- Growth Percent (10 μM) (NCl/ADR-RES): 86.36%
- Growth Percent (10 μM) (SNB-19): 90.45%
- Growth Percent (10 μM) (MDA-MB-231/ATCC): 95.23%
- Growth Percent (10 μM) (786-O): 96.67%
- Growth Percent (10 μM) (EKVX): 75.67%
- Growth Percent (10 μM) (U251): 80.49%
- Growth Percent (10 μM) (HS 578-T; Breast cancer, HS 578T, 10 μM): 101.62%
- Growth Percent (10 μM) (SK-MEL-28): 99.46%
- Growth Percent (10 μM) (NCI-H322M; Non-small cell lung cancer, NCI-H322M, 10 μM): 82.34%
- Growth Percent (10 μM) (MCF7): 59.71%
- Growth Percent (10 μM) (NCI-H226): 78.66%
- Growth Percent (10 μM), Delta (human tumor cell lines): 54.57%
- Growth Percent (10 μM), Mean (human tumor cell lines): 85.69%
- Growth Percent (10 μM), Range (human tumor cell lines): 109.89%
- Growth Percent (10 μM) (OVCAR-4): 77.50%
- Growth Percent (10 μM) (NCI-H23): 59.74%
- Growth Percent (10 μM) (MDA-MB-468): 84.32%
- Growth Percent (10 μM) (SK-MEL-2): 115.43%
- Growth Percent (10 μM) (SF-539): 97.27%
- IC50 ([1]; Homo sapiens): > 15 µM
- Growth Percent (10 μM) (HOP-62): 79.16%
- Growth Percent (10 μM) (LOX IMVI): 69.55%
- Growth Percent (10 μM) (CCRF-CEM): 86.62%
- Growth Percent (10 μM) (OVCAR-3): 86.97%
- Growth Percent (10 μM) (UACC-62): 95.64%
- Growth Percent (10 μM) (MOLT-4): 92.84%
- Growth Percent (10 μM) (SK-MEL-5): 31.12%
- Growth Percent (10 μM) (MALME-3M): 70.73%
- Growth Percent (10 μM) (M14): 94.61%
- Growth Percent (10 μM) (SNB-75): 94.52%
- Growth Percent (10 μM) (SF-268): 98.43%
- Growth Percent (10 μM) (SN12C): 89.82%
- Growth Percent (10 μM) (UO-31): 41.64%

SMILES: CN(C)CCNc1cc2c(c3nsnc13)C(=O)c1ccccc1C2=O [C8]
- Growth Percent (10 μM) (K562cell line): −24.44%
- Growth Percent (10 μM) (NCI-H460): −38.31%
- Growth Percent (10 μM) (HL-60, TB): −10.38%
- Growth Percent (10 μM) (TK-10): −35.59%
- Growth Percent (10 μM) (MDA, -MB-435): −58.82%
- Growth Percent (10 μM) (COLO 205): −99.38%
- Growth Percent (10 μM) (ACHN): −22.86%
- Growth Percent (10 μM) (NCI-H522): −91.81%
- Growth Percent (10 μM) (DU145): −95.45%
- Growth Percent (10 μM) (CAKI-1): 6.88%
- Growth Percent (10 μM) (SF-295): −55.73%
- Growth Percent (10 μM) (SR): −49.98%
- Growth Percent (10 μM) (NCl/ADR-RES): −23.20%
- Growth Percent (10 μM) (SNB-19): −77.31%
- Growth Percent (10 μM) (MDA-MB-231/ATCC): −2.96%
- Growth Percent (10 μM) (786-O): −14.05%
- Growth Percent (10 μM) (EKVX): −25.35%
- Growth Percent (10 μM) (U251): −55.42%
- Growth Percent (10 μM) (HS 578-T): 4.32%
- Growth Percent (10 μM) (SK-MEL-28): −50.60%
- Growth Percent (10 μM) (NCI-H322M): −56.32%
- Growth Percent (10 μM) (MCF7): −49.41%
- Growth Percent (10 μM) (NCI-H226): 69.78%
- Growth Percent (10 μM), Delta (human tumor cell lines): 49.51%
- Growth Percent (10 μM), Mean (human tumor cell lines): −49.52%
- Growth Percent (10 μM), Range (human tumor cell lines): 112.33%
- Growth Percent (10 μM) (OVCAR-4): −71.27%
- Growth Percent (10 μM) (NCI-H23): −43.43%
- Growth Percent (10 μM) (MDA-MB-468): −62.81%
- Growth Percent (10 μM) (SK-MEL-2): −66.52%
- Growth Percent (10 μM) (SF-539): −82.05%
- IC50 [1]: 0.4 µM
- Growth Percent (10 μM) (HOP-62): −67.97%
- Growth Percent (10 μM) (LOX IMVI): −90.91%
- Growth Percent (10 μM) (CCRF-CEM): −12.55%
- Growth Percent (10 μM) (OVCAR-3): −38.62%
- Growth Percent (10 μM) (UACC-62): −47.85%
- Growth Percent (10 μM) (MOLT-4): −41.28%
- Growth Percent (10 μM) (SK-MEL-5): −98.79%
- Growth Percent (10 μM) (MALME-3M): −85.22%
- Growth Percent (10 μM) (M14): −96.08%
- Growth Percent (10 μM) (SNB-75): −73.34%
- Growth Percent (10 μM) (SF-268): −14.54%
- Growth Percent (10 μM) (SN12C): −95.78%
- Growth Percent (10 μM) (UO-31): −28.47%

Reference: patent US8877748B2, “Heterocyclic fused anthraquinone derivatives, manufacturing method and pharmaceutical composition using thereof” (National Defense Medical Center, priority 2012, dated 2014)
